Test results taken from the supplement of paper PMC12533247.
± gives the standard deviation of the averaged measurements.

Experiments:
[1] = system: primary dermal fibroblasts; assay: % change in live cells vs DMSO control; higher = less cytotoxic; conditions: time (h post treatment): 48
Protocol: (§1)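 Cytotoxicity in uninfected 2D primary donor keratinocytes (20 h post treatment) and fibroblasts (48 h post treatment), measured with NucSpot live/dead dyes on IncuCyte. Live cells are normalised to the 0.2% DMSO control and shown as % change. Three biological replicates for each of donors 3, 4 and 5.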

primary keratinocytes = assay: as above; conditions: time (h post treatment): 20
Protocol: as §1

[2] = system: HSV-1 K26-GFP infected primary human skin cells; assay: % change of HSV-1 GFP signal vs untreated infected cells; higher = less antiviral inhibition
Protocol: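 2D primary donor-derived keratinocytes (read at 20 hpi) and donor-matched dermal fibroblasts (read at 48 hpi) infected with GFP-HSV-1 K26 at MOI 1 and treated 1 h later with compound dilutions. IncuCyte GFP integrated intensity is normalised by subtracting mock-infected wells and dividing by untreated infected wells, shown as % change (-100 = full inhibition).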

[3] = system: HSV-1 K26-GFP infected 3D skin equivalent; assay: % change of tdTomato fibroblast signal relative to infected DMSO control; higher = higher signal (negative = inhibition / toxicity); conditions: time (h post infection): 48
Protocol: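 Triplicate dose-response (0.04 to 10 uM) of 11 top compounds in 3D bioprinted skin equivalents (submerged and ALI models) infected with GFP-HSV-1 K26 at MOI 0.1 and fixed at 48 hpi. GFP (virus) and tdTomato (fibroblast viability) signals are normalised to per-plate controls.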

CC(=O)O[C@H]1C[C@H](O[C@H]2[C@@H](O)C[C@H](O[C@H]3[C@@H](O)C[C@H](O[C@H]4CC[C@@]5(C)[C@H](CC[C@@H]6[C@@H]5C[C@@H](O)[C@]5(C)[C@@H](C7=CC(=O)OC7)CC[C@]65O)C4)O[C@@H]3C)O[C@@H]2C)O[C@H](C)[C@H]1O[C@@H]1O[C@H](CO)[C@@H](O)[C@H](O)[C@H]1O [Lanatoside C]
Conditions	% change in live cells, donor: 3 [%]	% change in live cells, donor: 4 [%]	% change in live cells, donor: 5 [%]	% change of tdTomato fibroblast signal, model: ALI [%]	% change of tdTomato fibroblast signal, model: submerged [%]
[1], 0.082305 µM	-25.7 ± 14	-1.33 ± 4	-11.3 ± 12	–	–
[1], 0.246914 µM	-39.7 ± 12	-20 ± 6.9	-32.7 ± 14	–	–
[1], 0.740741 µM	-48.3 ± 11	-28.3 ± 19	-31.7 ± 21	–	–
[1], 2.22222 µM	-47 ± 12	-29.7 ± 17	-37.3 ± 19	–	–
[1], 6.66667 µM	-46 ± 13	-24.3 ± 12	-42 ± 14	–	–
[1], 20 µM	-43.3 ± 17	-22.7 ± 16	-46.7 ± 20	–	–
[1], 60 µM	-49.3 ± 19	-23.3 ± 8.1	-58.7 ± 7.8	–	–
[3], 0.041152 µM	–	–	–	2.37 ± 4.6	-1.16 ± 12
[3], 0.123457 µM	–	–	–	5.13 ± 5.8	-17.7 ± 6.7
[3], 0.37037 µM	–	–	–	-2.13 ± 2.2	-23.6 ± 11
[3], 1.111111 µM	–	–	–	0.581 ± 7.9	-37.1 ± 11
[3], 3.33333 µM	–	–	–	-5.14 ± 4.6	-52.9 ± 2.2
[3], 10 µM	–	–	–	-4.98 ± 4.8	-56.04 ± 0.53
primary keratinocytes, 0.082305 µM	-27 ± 14	-18 ± 5.2	-3.67 ± 2.1	–	–
primary keratinocytes, 0.246914 µM	-47 ± 2.6	-39.7 ± 13	-54.3 ± 2.5	–	–
primary keratinocytes, 0.740741 µM	-55.3 ± 3.5	-63 ± 12	-58.3 ± 3.2	–	–
primary keratinocytes, 2.22222 µM	-53.7 ± 6.1	-64 ± 12	-59 ± 5.3	–	–
primary keratinocytes, 6.66667 µM	-58 ± 6.2	-71.3 ± 9.1	-56.3 ± 2.5	–	–
primary keratinocytes, 20 µM	-67.7 ± 4.5	-76.3 ± 9.6	-57.3 ± 7.1	–	–
primary keratinocytes, 60 µM	-71.3 ± 10	-76.3 ± 9.5	-62.3 ± 6.4	–	–

% change of HSV-1 GFP signal [%], [2]
Conditions	0.001 µM	0.003 µM	0.0091 µM	0.0274 µM	0.0823 µM	0.2469 µM	0.7407 µM	2.2222 µM	6.6667 µM	20 µM
cell type: primary dermal fibroblasts, donor: 5, time (h post infection): 48	-2.98 ± 6	-9.39 ± 4.2	-4.44 ± 0.84	-5.88 ± 4.3	-21.6 ± 7.3	-99.19 ± 0.55	-99.81 ± 0.14	-99.972 ± 0.078	-99.993 ± 0.071	-99.985 ± 0.012
cell type: primary keratinocytes, donor: 3, time (h post infection): 20	4.49 ± 14	6.12 ± 15	-2.17 ± 7.1	7.86 ± 14	-16.9 ± 37	-96 ± 4.3	-99.91 ± 0.12	-99.948 ± 0.099	-99.8 ± 0.23	-99.941 ± 0.084
cell type: primary keratinocytes, donor: 4, time (h post infection): 20	-0.192 ± 8.9	-0.172 ± 1.1	-18.5 ± 14	-9.65 ± 0.19	-38.4 ± 17	-79.3 ± 23	-100.1 ± 0.17	-100.1 ± 0.18	-100.1 ± 0.21	-100.07 ± 0.081
cell type: primary keratinocytes, donor: 5, time (h post infection): 20	12.3 ± 7.9	12.4 ± 0.27	10 ± 4	-3.35 ± 5.9	-66 ± 14	-99.66 ± 0.15	-99.948 ± 0.052	-99.893 ± 0.07	-99.85 ± 0.12	-99.904 ± 0.018
